Assays:
[1] = tested on: cytokinin-dependent tobacco callus Nicotiana tabacum L. cv. Wisconsin 38; assay: Tobacco callus bioassay (stimulation of plant cell division); assay type: cell-based; details: for concentration with highest activity: increase of fresh callus weight after four weeks, tested 10^−8 M to 10^−4 M; for activity (%) [10^−5 mol · l^−1 C = 100%]: relative activity at the concentration with highest activity, kinetin riboside at 10^−5 mol/l = 100%
Protocol: Cytokinin-dependent tobacco callus Nicotiana tabacum L. cv. Wisconsin 38 was maintained at 25° C. in darkness on modified MS medium, containing per 1 liter: 4 μmol of nicotinic acid, 2.4 μmol of pyridoxine hydrochloride, 1.2 μmol of thiamine, 26.6 μmol of glycine, 1.37 μmol of glutamine, 1.8 μmol of myo-inositol, 30 g of sucrose, 8 g of agar, 5.37 μmol of NAA and 0.5 μmol of the compound tested. Subcultivation was carried out every three weeks. Fourteen days before the bioassay, the callus tissue was transferred to the media without the compound tested. The biological activity was determined from the increase of the fresh callus weight after four weeks of cultivation. Five replicates were prepared for each concentration of the compound tested and the entire test was repeated twice. From the obtained data, the concentration with the highest activity was selected for each compound tested. Relative activity of the compound at this concentration was calculated (Table 8). The compounds to be tested were dissolved in dimethylsulfoxide (DMSO) and the solution brought up to 10^−3M with distilled water. […] The compounds listed in Table 8 are compared to a “classical cytokinin” kinetin riboside (compound known in the prior art—C=control).

β-adrenergic receptors = assay: Isoproterenol-induced cAMP synthesis in rat C6 glioma (anti-inflammatory activity); assay type: cell-based; details: for Effect (modulation of isoproterenol-induced cAMP synthesis): added simultaneously with (−)-isoproterenol; for IC50: cellular cAMP by enzyme immunoassay, dose-response curve in duplicate, read-out: I50
Protocol: Anti-inflammatory activity of several of the 2-substituted 6-benzylaminopurine riboside derivatives of this invention was determined; kinetin riboside was also evaluated as a control. Rat C6 glioma (ATCC No. CCL107) was cultivated in monolayer in serum-free chemically defined medium containing Ham's F10/minimal essential medium (1:1 v/v), 2 mM L-glutamine, 1% (v/v) minimal essential medium vitamins (100×), 1% (v/v) minimal essential medium nonessential amino acids (100×), 100 U/mL penicillin, […], and 30 nM sodium selenite. Incubation was performed at 37° C. in a humidified atmosphere. The assays were performed in the logaritmic growth phase at a density of 2.5×10^5 cells/cm^2.
Intracellular cAMP synthesis was induced by addition of 5 mM (−)-isoproterenol; various amounts of test compounds were added at the same time as the (−)-isoproterenol. After […] incubation at 37° C., the medium was removed and the cellular amount of cAMP was determined using the cAMP-enzyme immunoassay kit from Amersham. The I50 value was determined from a dose-response curve in duplicate. The effect of nine purine analogues was measured after simultaneous addition with isoproterenol.
As P2Y1-like and A2 purinergic receptors, negatively and positively coupled to adenylate cyclase respectively, are present on rat C6 glioma as to be determined if the modulation of the synthesis of cAMP is due to inhibition of the activation of β-adrenergic receptors by isoproterenol are due to activation of purinergic receptors.

Row | SMILES | concentration with highest activity [1] | activity (%) [10^−5 mol · l^−1 C = 100%] [1] | Effect (modulation of isoproterenol-induced cAMP synthesis) (β-adrenergic receptors) | Effect (modulation of isoproterenol-induced cAMP synthesis) (β-adrenergic receptors; listed as control) | IC50 (β-adrenergic receptors) [µM]
1 | OC[C@H]1O[C@@H](n2cnc3c(NCc4ccco4)ncnc32)[C@H](O)[C@@H]1O [C, kinetin riboside, reference compound] | 10^−5 mol · l^−1 | 100% | inactive | none | –
2 | OCC1OC(n2cnc3c(NCc4ccc(F)cc4F)nc(Cl)nc32)C(O)C1O (stereo not drawn) [Compound 32] | 10^−6 mol · l^−1 | 109.7 (±12) % | – | – | –
3 | COc1cccc(CNc2nc(F)nc3c2ncn3C2OC(CO)C(O)C2O)c1O (stereo not drawn) [Compound 40] | – | – | inhibition | – | 4.2 ± 2
4 | OCC1OC(n2cnc3c(NCc4c(F)ccc(F)c4F)nc(Cl)nc32)C(O)C1O (stereo not drawn) [Compound 33] | 10^−6 mol · l^−1 | 105.1 (±2) % | – | – | –
5 | CSc1nc(NCc2ccc(F)cc2F)c2ncn(C3OC(CO)C(O)C3O)c2n1 (stereo not drawn) [Compound 97] | 10^−6 mol · l^−1 | 107 (±8) % | – | – | –
6 | OCC1OC(n2cnc3c(NCc4cc(F)ccc4O)nc(F)nc32)C(O)C1O (stereo not drawn) [Compound 50] | – | – | inhibition | – | 13.6 ± 3
7 | OCC1OC(n2cnc3c(NCc4cc(Cl)ccc4O)nc(F)nc32)C(O)C1O (stereo not drawn) [Compound 49] | 10^−6 mol · l^−1 | 112 (±8) % | inhibition | – | 10.8 ± 3
